{
  "source": "patent US4749649A",
  "about": "“Microbial Δ1-dehydrogenation process using a scavenger of toxic oxygen” (The Upjohn Company, priority 1983, dated 1988)",
  "origin": "cited, not measured here",
  "key": {"[1]": {"tested_on": "steroid-1-dehydrogenase", "settings": "Pseudomonas testosteroni; potential toxicity by superoxide and peroxide formation"}, "[2]": {"settings": "compared with hydrocortisone and cortisone"}, "[3]": {"settings": "compared with hydrocortisone and cortisone", "remark": "listed apart in the source"}},
  "data": [
    {"molecule": "C[n+]1c2ccccc2nc2ccccc21", "note": "[PMS, phenazinemethosulfate]", "values": [
      {"measurement": "1-dehydrogenase activity in the presence of PMS", "setting": "[1]", "value": "essentially unaffected"}
    ]},
    {"molecule": "C[C@]12C=CC(=O)C=C1CC[C@@H]1[C@@H]2[C@@H](O)C[C@@]2(C)[C@H]1CC[C@]2(O)C(=O)CO", "note": "[prednisolone]", "values": [
      {"measurement": "drug-induced salt retention", "setting": "[2]", "value": "less drug-induced salt retention"},
      {"measurement": "potency", "setting": "[3]", "value": "enhanced potency"}
    ]},
    {"molecule": "C[C@]12C=CC(=O)C=C1CC[C@@H]1[C@@H]2C(=O)C[C@@]2(C)[C@H]1CC[C@]2(O)C(=O)CO", "note": "[prednisone]", "values": [
      {"measurement": "drug-induced salt retention", "setting": "[2]", "value": "less drug-induced salt retention"}
    ]}
  ]
}
